From US20180093956A1, “SUBSTITUTED PHTHALAZINES” (AbbVie Inc., priority 2015, published 2018)

Assays:
SUV420H1 enzyme = SUV420H1 enzyme (Homo sapiens, UniProt Q4FZB7); assay: TR-FRET SAH SUV420H1 enzyme inhibition assay; type: biochemical; settings: Histone Peptide H4(8-30)me1 and SAM, TR-FRET detection of SAH, read-out: TR-FRET SAH_SUV420H1 IC50
Method: Test compounds were dispensed by a Labcyte Echo in 384-well low volume assay plates with 3-fold serial dilutions from 50 μM to 0.00075 μM. 5 μL of SUV420H1 enzyme (Abbvie) at 90 nM was added to all wells except for the no enzyme control wells and incubated for 30 minutes at room temperature before 5 μL of Histone Peptide H4(8-30)me1 (Anaspec) at 5 μM and SAM at 4 μM was added to all wells. The plates were incubated in a humidified chamber overnight at room temp and then 10 μL of the detection reagent that contained RIPA buffer (50 mM Tris-HCl, pH 8.0, 150 mM sodium chloride, 1.0% Igepal CA-630 (NP-40), 0.5% sodium deoxycholate and 0.1% sodium dodecyl sulfate) (Sigma) with 2 nM of Terbium chelate anti S-adenosyl-L-homocysteine (SAH) (Abbvie) antibody and Oregon Green labeled SAH at 4 nM was added. The plates were further incubated for 4 hours at room temperature. The plates were read in a Perkin Elmer Envision using a TR-FRET protocol with Excitation set at 335 nm and Emission at 520 and 495 nm. To generate dose response curves the data is normalized to percent inhibition by setting the average of the plus and minus enzyme control wells to 0% and 100% inhibition respectively. The ICso values for the compounds are generated by fitting the normalized data with Accelrys Assay Explorer 3.3 to a sigmoidal curve model using […], Y=(100*x^n)/(K^n+x^n), where Y is the measured response, x is the compound concentration, n is the Hill Slope and K is the IC50 and the lower and higher asymptotes are constrained to 0 and 100 respectively.

[1] = tested on: H4K20me3 in PC-3 cells (SUV420H1 cellular activity); assay: H4K20me3 Cellular PD Assay (high content microscopy); type: cell-based; settings: Homo sapiens, treated for 72 hours, H4K20me3 immunofluorescence, read-out: H4K20me3 Inhibition EC50
Method: A high content microscopy-based PD assay was used to analyze the decrease of H4K20me3 upon inhibition of SUV420H1 cellular activity. PC-3 cells were plated at 3,000 cells per well in black Collagen I coated 96-well plates (Perkin Elmer, #6005810) in RPMI supplemented with 10% heat inactivated FBS, 1% sodium pyruvate and 1% non-essential amino acids in a 37° C. tissue culture incubator. At 24 hours post seeding, cells were treated with the indicated compounds for 72 hours in an 8-point dose response using half log dilutions from […] and then fixed in 2% formaldhyde (Polysciences, Inc., #04018) for 10 minutes at room temperature. Cells were washed in PBS and permeablized in 0.1% Triton X-100 for 10 minutes at room temperature. After blocking in 1% BSA (Sigma, #A7030) in PBS for 1 hour at room temperature, a mouse monoclonal antibody directed toward H4K20me3 (Santa Cruz, #sc-134216) in antibody dilution buffer (0.3% BSA in PBS) was added for 16 hours at 4° C. Cells were then washed 3 times in PBS and an Alexa Fluor 555 conjugated goat anti-mouse (Life Technologies #A-21424) secondary antibody was added for 1 hour at room temperature. Hoechst 33342 diluted 1:10000 (Life Technologies #H3570) was also added during the secondary antibody incubation. Cells were washed 3 times in PBS and stored in PBS at 4° C. Fluorescent images were acquired within 24 hours on a Cell Insight (Thermo Fisher Scientific) using the Target Activation algorithm. Objects were identified via nuclear Hoescht staining, and changes in average mean intensity in the fluorescent signals of H4K20me3 were quantified using the HCS View software platform (Thermo Fisher Scientific).

Chain of SUV420H1 enzyme (Q4FZB7 whole entry): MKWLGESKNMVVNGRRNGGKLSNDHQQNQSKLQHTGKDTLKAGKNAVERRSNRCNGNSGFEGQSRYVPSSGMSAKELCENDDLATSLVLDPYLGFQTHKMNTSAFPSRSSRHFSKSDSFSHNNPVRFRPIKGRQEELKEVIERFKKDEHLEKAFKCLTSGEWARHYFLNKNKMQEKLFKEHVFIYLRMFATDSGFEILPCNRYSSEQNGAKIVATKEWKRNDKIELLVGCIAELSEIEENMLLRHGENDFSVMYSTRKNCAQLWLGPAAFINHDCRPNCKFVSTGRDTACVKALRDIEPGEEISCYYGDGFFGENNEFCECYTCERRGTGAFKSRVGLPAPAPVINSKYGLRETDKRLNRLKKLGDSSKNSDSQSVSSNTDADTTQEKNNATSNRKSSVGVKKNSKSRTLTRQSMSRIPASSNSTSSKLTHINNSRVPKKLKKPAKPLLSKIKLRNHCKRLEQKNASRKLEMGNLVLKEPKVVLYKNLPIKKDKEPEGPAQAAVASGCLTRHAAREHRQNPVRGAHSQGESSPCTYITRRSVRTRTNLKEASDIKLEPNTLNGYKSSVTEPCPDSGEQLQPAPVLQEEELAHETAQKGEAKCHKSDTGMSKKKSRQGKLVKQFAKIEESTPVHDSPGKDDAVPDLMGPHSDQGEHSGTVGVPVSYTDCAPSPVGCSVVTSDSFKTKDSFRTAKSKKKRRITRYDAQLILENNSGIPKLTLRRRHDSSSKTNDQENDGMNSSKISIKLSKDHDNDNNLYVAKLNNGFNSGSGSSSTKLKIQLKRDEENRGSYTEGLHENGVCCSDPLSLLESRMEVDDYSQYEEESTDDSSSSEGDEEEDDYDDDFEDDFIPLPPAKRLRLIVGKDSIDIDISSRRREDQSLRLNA

An IC50 (SUV420H1 enzyme) of 0.373 µM and an EC50 [1] of 3.43 µM were found for `CN1CCN(c2nnc(NC3CCCC3)c3cc(Cl)c(Cl)cc23)CC1` [Example 9, 6,7-dichloro-N-cyclopentyl-4-(4-methylpiperazin-1-yl)phthalazin-1-amine] in this work.

An IC50 (SUV420H1 enzyme) of 0.174 µM and an EC50 [1] of 7.91 µM were found for `CC(C)(C)OC(=O)Cn1cc(-c2nnc(NC3CCCC3)c3cc(Cl)c(Cl)cc23)cn1` [Example 43, tert-butyl {4-[6,7-dichloro-4-(cyclopentylamino)phthalazin-1-yl]-1H-pyrazol-1-yl}acetate] in this work.

An IC50 (SUV420H1 enzyme) of 0.111 µM and an EC50 [1] of 0.505 µM were found for `Cn1cc(-c2nnc(NC3CCCC3)c3cc(Cl)c(Cl)cc23)cn1` [Example 5, 6,7-dichloro-N-cyclopentyl-4-(1-methyl-1H-pyrazol-4-yl)phthalazin-1-amine] in this work.

An IC50 (SUV420H1 enzyme) of 0.127 µM and an EC50 [1] of 2.83 µM were found for `NC(=O)c1nnc(NC2CCCC2)c2cc(Cl)c(Cl)cc12` [Example 42, 6,7-dichloro-4-(cyclopentylamino)phthalazine-1-carboxamide] in this work.

An IC50 (SUV420H1 enzyme) of 0.188 µM and an EC50 [1] of 6.57 µM were found for `O=C(Cn1cc(-c2nnc(NC3CCCC3)c3cc(Cl)c(Cl)cc23)cn1)N1CCC(O)CC1` [Example 64, 2-{4-[6,7-dichloro-4-(cyclopentylamino)phthalazin-1-yl]-1H-pyrazol-1-yl}-1-(4-hydroxypiperidin-1-yl)ethanone] in this work.

An IC50 (SUV420H1 enzyme) of 1.05 µM and an EC50 [1] of 0.465 µM were found for `OCCNc1ccc(-c2nnc(NC3CCCC3)c3cc(Cl)c(Cl)cc23)cn1` [Example 30, 2-({5-[6,7-dichloro-4-(cyclopentylamino)phthalazin-1-yl]pyridin-2-yl}amino)ethanol] in this work.

An IC50 (SUV420H1 enzyme) of 0.0903 µM and an EC50 [1] of 1.12 µM were found for `COC(=O)c1nnc(NC2CCCC2)c2cc(Cl)c(Cl)cc12` [Example 37, methyl 6,7-dichloro-4-(cyclopentylamino)phthalazine-1-carboxylate] in this work.
